Results as given in patent US9211288B2 (priority 2012, dated 2015).
Like-named read-outs stand apart in the source and are kept apart here.

Legend:
[1] = tested on: acetylcholine levels in hippocampus; assay: Microdialysis: acetylcholine levels in ventral hippocampus of freely moving Sprague Dawley rats (Examples 3 and 4); assay type: in vivo, rat
Source text: Adult, male Sprague Dawley rats were used in the experiments. The rats were anesthetized before surgery. The animals were placed in a stereotaxic frame (Kopf instruments, USA), and CMA12 guide cannulas (CMA Microdialysis, Sweden) were implanted aiming into the ventral hippocampus. Coordinates for the tips of the probes were AP=−5.3 mm to bregma, lateral (ML)=−4.8 mm to midline and ventral=−8.0 mm to dura (Paxinos and Watson).
Galanthamine, the chemical name of which is (4aS,6R,8aS)-4a,5,9,10,11,12-hexahydro-3-methoxy-11-methyl-6H-benzofuro[3a,3,2-ef][2]benzazepin-6-ol, was administered as the HBr salt. Vortioxetine was administered as the HBr salt. Vortioxetine and galantamine were prepared in 0.9% saline. Vortioxetine was administered subcutaneously at 10 mg/kg and galantamine was administered subcutaneously at 0.3 mg/kg and 1.0 mg/kg.
The day before the experiment, a microdialysis probe (CMA/12, 4 mm, PAES, MWKO 100 kDa) was inserted into the respective guide cannula in the awake rats. […] At the day of the experiment, samples were collected in 30 min intervals prior to administration to define the baseline. The data is presented as percentage of baseline within the same animal. Significance is defined as p<0.05. Animals received treatments according to experimental protocol and samples were collected at 30 minutes intervals.
The concentration of acetylcholine in the samples was determined using a Waters Acquity HPLC system equipped with a Sunshell RP-Aqua 2.1×100 mm, 2.6 um particle column fitted with a Waters Quattro Premier XE triple quadrupole mass spectrometer operating in the MS/MS mode. Components were separated using an isocratic flow of eluent A (100 mM ammonium acetate in milliQ water).
Injection of galantamine was 60 minutes prior to the injection of vortioxetine.

[2] = tested on: rats with scopolamine-induced memory impairment; assay: Novel object recognition task (NOR) in rats with scopolamine-induced memory impairment (Example 5); assay type: in vivo, rat
Procedure: In a habituation phase, rats are allowed to explore the test room environment and two objects which differ in shape, colour and texture. In the test phase, one of the objects is exchanged so that the rats are exposed to one novel object and one familiar object. The time spent exploring the novel and the familiar object is recorded following the administration of test compounds.
Sprague-Dawley rats were used
One day 1 and day 2 of the experiment the rats received two habituation sessions to the test room environment including two objects (familiar objects). Each session lasted 6 minutes. […] At the test day, five groups of rats received a third habituation test (familiarization trial) after which they were removed from the test apparatus and one of the objects was replaced with a novel object. Four hours later, the rats were put back in the test apparatus (test phase) and the time used exploring of the familiar and the novel object was recorded.
The numbers in parenthesis indicate the number of rats in each group

[3] = tested on: patients suffering from MDD; details: long-term study; cited from earlier work
serotonin transporter [4] = target: T1, serotonin transporter (Homo sapiens, UniProt P31645); details: humans, cited from earlier work
T1 construct: The serotonin transporter occupancy in humans was investigated; host or cells: human subjects, in vivo

[5] = assay type: in vivo; details: rat
Source text: In addition, blood samples were taken from each animal to measure the plasma level of the active ingredients.

serotonin transporter [6] = target: T2, serotonin transporter (Rattus norvegicus, UniProt P31652); details: rats; vortioxetine dosed at 5-10 mg/kg; cited from earlier work
T2 construct: The receptor occupancy in rats following administration of vortioxetine has been investigated; host or cells: rat, in vivo / ex vivo occupancy

5-HT1B-receptor = target: T3, 5-HT1B-receptor (Rattus norvegicus, UniProt P28564); details: rats; vortioxetine dosed at 5-10 mg/kg; cited from earlier work
T3 construct: The receptor occupancy in rats following administration of vortioxetine has been investigated; host or cells: rat, in vivo / ex vivo occupancy

[7] = tested on: patients with major depressive disorder (MDD); details: cited from earlier work
5-HT3-receptor = target: T4, 5-HT3-receptor (Rattus norvegicus, UniProt P35563); details: rats; vortioxetine dosed at 5-10 mg/kg; cited from earlier work
T4 construct: The receptor occupancy in rats following administration of vortioxetine has been investigated; host or cells: rat, in vivo / ex vivo occupancy
T4 sequence (P35563 24-483): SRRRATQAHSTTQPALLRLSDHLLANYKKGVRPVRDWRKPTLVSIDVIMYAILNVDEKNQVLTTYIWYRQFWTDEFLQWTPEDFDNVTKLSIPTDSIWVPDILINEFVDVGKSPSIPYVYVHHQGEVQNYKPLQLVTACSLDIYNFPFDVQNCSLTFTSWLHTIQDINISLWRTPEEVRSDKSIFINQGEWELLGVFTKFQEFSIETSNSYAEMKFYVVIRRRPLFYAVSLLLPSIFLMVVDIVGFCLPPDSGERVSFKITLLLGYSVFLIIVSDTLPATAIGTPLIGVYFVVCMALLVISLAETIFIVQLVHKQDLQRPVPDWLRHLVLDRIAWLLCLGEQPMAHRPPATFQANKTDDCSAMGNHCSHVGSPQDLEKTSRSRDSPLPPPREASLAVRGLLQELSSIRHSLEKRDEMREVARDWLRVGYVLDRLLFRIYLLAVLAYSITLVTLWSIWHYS

[8] = plasma; cited from earlier work
[9] = tested on: acetylcholine levels in ventral hippocampus; details: donepezil 1 mg/kg ip and vehicle; compared to vehicle+vehicle
Source text: Adult, male, Wistar rats were used for the experiments. The rats were anesthetized before surgery. Each animal was placed in a stereotaxic frame (Kopf Instruments, USA) and an incision was made on the top of the skull. A microdialysis probe with a 4 mm^2 exposed surface (polyacrylnitril membrane, Brainlink, the Netherlands) was implanted into the ventral hippocampus. […] The probes were attached to the skull with stainless steel screws and dental cement. Experiments started after one day of recovery.
Vortioxetine HBr was prepared in 10% 2-hydroxypropyl-β-cyclodextrin at 0, 5 or 10 mg/ml.
After two hours of prestabilisation, samples (30 μl) were collected and stored in 20 mM formic acid and 0.04% ascorbic acid (10 μl).
The concentration of acetylcholine in the samples was determined by HLPC fitted with tandem mass spectroscopy (MS/MS) for detection using acetyl-β-methyl-choline as internal standard. Chromatographic separation was performed on a reversed phase Phenomenex Synergi Max-RP column (2.0×150 mm, particle size 4 μm) at 50° C. Components were separated using an isocratic flow of eluent A (20 mM ammonium acetate, 5% acetonitril and 0.3% trifluoroacetic acid) at a flow rate of 0.25 ml/min. […]
The average of three pre-administration samples was set to 100%. […] All post-administration samples were expressed as a percentage of basal level within the same subject. […]

T1 sequence (P31645 whole entry): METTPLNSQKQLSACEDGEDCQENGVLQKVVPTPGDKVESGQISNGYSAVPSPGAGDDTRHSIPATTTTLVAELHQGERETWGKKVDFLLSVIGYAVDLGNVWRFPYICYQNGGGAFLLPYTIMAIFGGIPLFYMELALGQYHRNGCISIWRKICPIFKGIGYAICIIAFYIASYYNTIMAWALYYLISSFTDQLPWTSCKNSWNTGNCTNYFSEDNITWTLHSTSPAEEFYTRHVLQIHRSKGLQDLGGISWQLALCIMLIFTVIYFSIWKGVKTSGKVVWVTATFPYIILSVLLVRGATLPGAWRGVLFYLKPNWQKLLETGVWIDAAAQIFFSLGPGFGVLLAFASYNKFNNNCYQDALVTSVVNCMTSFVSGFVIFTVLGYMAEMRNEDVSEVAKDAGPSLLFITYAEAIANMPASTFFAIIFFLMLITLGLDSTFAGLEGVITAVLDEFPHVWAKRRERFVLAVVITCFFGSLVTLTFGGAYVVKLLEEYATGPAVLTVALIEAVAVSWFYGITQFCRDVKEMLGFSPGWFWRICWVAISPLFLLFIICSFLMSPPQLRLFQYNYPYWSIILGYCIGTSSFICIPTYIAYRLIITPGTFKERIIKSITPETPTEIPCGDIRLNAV
T2 sequence (P31652 whole entry): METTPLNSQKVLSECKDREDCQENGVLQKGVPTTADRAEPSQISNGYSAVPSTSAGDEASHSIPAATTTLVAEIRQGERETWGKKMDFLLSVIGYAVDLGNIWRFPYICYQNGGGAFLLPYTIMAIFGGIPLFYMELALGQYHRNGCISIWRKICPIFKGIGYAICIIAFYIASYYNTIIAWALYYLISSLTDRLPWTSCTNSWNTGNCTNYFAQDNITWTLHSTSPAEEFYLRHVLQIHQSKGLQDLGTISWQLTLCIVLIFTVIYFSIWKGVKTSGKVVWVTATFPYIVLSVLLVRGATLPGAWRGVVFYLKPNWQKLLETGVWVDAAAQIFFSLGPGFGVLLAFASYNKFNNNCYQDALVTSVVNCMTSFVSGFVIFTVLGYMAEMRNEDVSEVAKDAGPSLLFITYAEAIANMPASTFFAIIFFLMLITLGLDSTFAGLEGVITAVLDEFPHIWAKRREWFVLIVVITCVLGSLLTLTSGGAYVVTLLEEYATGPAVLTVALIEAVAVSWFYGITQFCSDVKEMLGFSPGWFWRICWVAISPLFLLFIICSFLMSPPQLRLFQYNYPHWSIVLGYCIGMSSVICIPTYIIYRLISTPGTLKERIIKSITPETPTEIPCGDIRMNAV
T3 sequence (P28564 whole entry): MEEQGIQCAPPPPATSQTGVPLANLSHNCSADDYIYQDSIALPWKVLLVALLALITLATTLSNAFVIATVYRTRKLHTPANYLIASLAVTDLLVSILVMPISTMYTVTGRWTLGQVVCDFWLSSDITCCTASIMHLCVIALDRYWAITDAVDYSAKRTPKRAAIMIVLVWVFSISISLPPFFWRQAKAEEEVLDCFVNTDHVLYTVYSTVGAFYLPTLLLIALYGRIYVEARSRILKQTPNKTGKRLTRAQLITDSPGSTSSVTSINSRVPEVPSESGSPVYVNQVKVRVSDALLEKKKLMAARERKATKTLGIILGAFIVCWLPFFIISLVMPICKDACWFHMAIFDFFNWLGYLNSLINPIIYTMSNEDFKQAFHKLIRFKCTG

CCN(C)C(=O)Oc1cccc([C@H](C)N(C)C)c1 [rivastigmine, (S)—N-ethyl-N-methyl-3-[1-(dimethylamino)ethyl]-phenyl carbamate]
acetylcholine levels in hippocampus ([1]; rivastigmine 0.2 and 0.6 mg/kg sc and vehicle): dose-dependently and significantly increases

CN1[C@@H]2C[C@@H](OC(=O)[C@H](CO)c3ccccc3)C[C@H]1[C@@H]1O[C@@H]12 [scopolamine]
effect on short-term memory (recognition index, RI) ([2]; scopolamine 0.5 mg/kg ip 40 minutes prior to familiarization trial, versus saline, p<0.001): impairs short-term memory

Cc1ccc(Sc2ccccc2N2CCNCC2)c(C)c1 [Vortioxetine, 1-[2-(2,4-dimethyl-phenylsulfanyl)-phenyl]-piperazine]
reversal of scopolamine-induced memory impairment (recognition index, RI) ([2]; scopolamine 0.5 mg/kg + vortioxetine 5 mg/kg ip 20 minutes prior to familiarization trial): neither vortioxetine at 5 mg/kg nor donepezil at 0.5 mg/kg is able to reverse this impairment
prevention of relapse [3]: effective in preventing relapse
serotonin transporter occupancy (serotonin transporter [4]; 5 mg/day): 51%
serotonin transporter occupancy (serotonin transporter [4]; 10 mg/day): 63%
serotonin transporter occupancy (serotonin transporter [4]; 20 mg/day): 90%
Vortioxetine in plasma ([5]; vortioxetine 10 mg/kg sc + donepezil 0.3 mg/kg ip): 317 ng/mL
Vortioxetine in plasma ([5]; vortioxetine 10 mg/kg sc + donepezil 1 mg/kg ip): 317 ng/mL
occupancy at serotonin transporter (serotonin transporter [6]): almost full occupancy
occupancy at 5-HT1B-receptor (5-HT1B-receptor): almost full occupancy
acetylcholine levels in hippocampus ([1]; vortioxetine 10 mg/kg sc): significant increase
changes in clinical laboratory results, vital signs, weight, or ECG parameters ([7]; human, in vivo): no clinically relevant changes
treatment of depressive and anxious symptoms versus placebo ([7]; patients with MDD, six weeks): separates significantly from placebo
occupancy at 5-HT3-receptor (5-HT3-receptor): almost full occupancy
half-life in humans [8]: approximately 57 hours

COc1cc2c(cc1OC)C(=O)C(CC1CCN(Cc3ccccc3)CC1)C2 (stereo not drawn) [Donepezil]
acetylcholine levels in ventral hippocampus [9]: significantly increased

COc1ccc2c3c1O[C@H]1C[C@@H](O)C=C[C@@]31CCN(C)C2 [galantamine, (4aS,6R,8aS)-4a,5,9,10,11,12-hexahydro-3-methoxy-11-methyl-6H-benzofuro[3a,3,2-ef][2]benzazepin-6-ol]
acetylcholine levels in hippocampus ([1]; galantamine 0.3 and 1.0 mg/kg sc and vehicle): dose dependent, significant increase
